The test system of test [1] is TNBC PDX model OD-BRE-00589. Put plainly: TNBC PDX model OD-BRE-00589, antitumor activity. The format is in vivo, female SCID mice. The following applies: Compound 1 70 mg/kg iv once, liposomal formulation. As to the method: Docetaxel was formulated in 5% ethanol, 5% PS80 and 90% Glucose at 0.67 mg/ml to administer 10 mg/kg. […] OD-BRE-00589 is a triple negative breast cancer PDX, obtained from the IMODI consortium. […] It was grafted on SCID mice as fragments of 27 mm^3 volume. […] The administrations were performed once in the caudal vein.

In test [2] the test system is HCC1937 breast cancer cell line. Put plainly: 72 hours CellTiter-Glo proliferation assay, HCC1937. The conditions noted are these: single agent, read-out: Abs IC50. The test is classed as cell-based. As to the method:
(§1) Compounds were dissolved in 100% DMSO (Sigma, Catalog # D2438-50 ML) at a stock concentration of 10 mM and stored at −20° C. until use. Compounds were arrayed in 2 ml deep 96-well plates (Greiner bio-one, catalog number 780271) serially diluted 3-fold. Compound 1 was used over a concentration range of 0.0-10.0 μM. Paclitaxel was used over a concentration range of 0.0-1.0 μM in breast cancer cells and 0.0-2.0 μM range in lung cancer cells.
(§2) All cell lines were purchased from the American Type Culture Collection and cultured according to vendor recommendations. […] All cell lines were determined to be free of mycoplasma contamination by a PCR detection assay performed at Idexx Radil (Columbia, Mo., USA) and authenticated by SNP analysis. […] Cells were expanded to T-75 flasks and assessed for viability using a Beckman-Coulter ViCell counter prior to plating. […]
(§3) Cell proliferation was measured in 72 hours CellTiter-Glo™ (CTG) assays and all results shown are the result of at least triplicate measurements. […] After 72 hours of compound treatment the effects of compounds on cell proliferation was determined using the CellTiter-Glo™ Luminescent Cell Viability Assay (Promega, Catalog # G7573). This is a homogeneous method to determine the number of viable cells in culture based on quantitation of the ATP present, which signals the presence of metabolically active cells. […]
(ATP-based viability assays read luminescence as a measure of living cells.)

The subject of test [3] is A549 lung cancer cell line. Put plainly: 72 hours CellTiter-Glo proliferation assay, A549. The test is classed as cell-based. The following applies: single agent, read-out: Abs IC50. As to the method:
as §1, §2, §3

Test [4] has as its system HCC1395 breast cancer cell line. Put plainly: 72 hours CellTiter-Glo proliferation assay, HCC1395. The following applies: single agent, read-out: Abs IC50. The format is cell-based. As to the method:
as §1, §2, §3

The subject of test [5] is HCC38 breast cancer cell line. Put plainly: 72 hours CellTiter-Glo proliferation assay, HCC38. The test is classed as cell-based. The conditions noted are these: single agent, read-out: Abs IC50. As to the method: as §1, §2, §3
Test [6] has as its system MDA-MB-468 breast cancer cell line. Put plainly: 72 hours CellTiter-Glo proliferation assay, MDA-MB-468. The format is cell-based. The conditions noted are these: single agent, read-out: Abs IC50. As to the method: as §1, §2, §3
Test [7] concerns NCI-H522 lung cancer cell line. Put plainly: 72 hours CellTiter-Glo proliferation assay, NCI-H522. The test is classed as cell-based. The conditions noted are these: single agent, read-out: Abs IC50. As to the method: as §1, §2, §3
The test system of test [8] is SK-BR-3 breast cancer cell line. Put plainly: 72 hours CellTiter-Glo proliferation assay, SK-BR-3. The following applies: single agent, read-out: Abs IC50. The test is classed as cell-based. As to the method: as §1, §2, §3

pIC50: −log10 of the molar value.

The term pIC50 denotes the IC50 on a negative log10 scale, so that one unit is a factor of ten. As for `COc1ccccc1-c1nccc(COc2ccccc2C[C@@H](Oc2ncnc3sc(-c4ccc(F)cc4)c(-c4ccc(OCCN5CCN(C)CC5)c(Cl)c4C)c23)C(=O)O)n1` [Compound 1, (2R)-2-{[(5Sa)-5-{3-chloro-2-methyl-4-[2-(4-methylpiperazin-1-yl)ethoxy]phenyl}-6-(4-fluorophenyl)thieno[2,3-d]pyrimidin-4-yl]oxy}-3-(2-{[2-(2-methoxyphenyl)pyrimidin-4-yl]methoxy}phenyl)propanoic acid], the “inhibition of tumor growth, single agent” value in test [1] is recorded as “insufficient in inhibiting tumor growth”. The pIC50 is 6.86 in test [2]; under 5.00 in test [3]; 5.00 in test [4]; 5.47 in test [5]; 5.00 in test [6]; 6.15 in test [7]. In addition, in test [8], the pIC50 is 6.52.
